In brackets after ≈: the same amount, converted by molar mass.
How the values were obtained:
HBV [1] = conditions: literature report; cited from earlier work
[2] = Cytotoxic Concentration in HepG2 2. 2. 15 cell line; assay type: cell-based; conditions: human, hepg2 2.2.15 cells
Method: (§1) Anti-HBV effect of 1-(5-hydroxymethyl-1,4-dioxan-2-yl)thymine, one of the desired product of the present invention prepared in Example 38, was tested in HepG2 2. 2. 15 cell line. The resultant Effective Concentration (Ec50, EC90), Cytotoxic Concentration (CC50) and Selectivity Index (SI) are shown in the Table below.

HBV [3] = assay: Anti-HBV effect in HepG2 2. 2. 15 cell line; assay type: cell-based, Hepatitis B Virus
Method: as §1

| Structure (SMILES) | anti-HBV activity (in words) (HBV [1]) | other results |
| --- | --- | --- |
| Nc1nc(=O)n(C2CCC(CO)O2)cc1F [2'3'-dideoxy-β-L-5-fluoro-cytidine] | showing anti-HBV activity |  |
| Nc1ccn([C@H]2CS[C@@H](CO)O2)c(=O)n1 [2',3'-dideoxy-3'-thiacytidine] | showing anti-HBV activity |  |
| Nc1ccn(C2CCC(CO)O2)c(=O)n1 [2',3'-dideoxy-β-L-cytidine] | showing anti-HBV activity |  |
| Nc1nc(=O)n([C@H]2CS[C@@H](CO)O2)cc1F [5-fluoro-2',3'-dideoxy-3'-thiacytidine] | showing anti-HBV activity |  |
| Cc1cn(C2COC(CO)CO2)c(=O)[nH]c1=O (centres unmarked) [Compound of Ex.38, 1-(5-hydroxymethyl-1,4-dioxan-2-yl)thymine] |  | CC50 [2]: 846 µg/mL (≈ 3490 µM); SI (CC50/EC50) (Selectivity Index) (HBV [3]; CC50/EC50): 188; EC50 (HBV [3]; Hepatitis B virus, HepG2 2.2.15, read-out: EC50 (Effective Concentration)): 4.5 µg/mL (≈ 18.6 µM); EC90 (HBV [3]; Hepatitis B virus, HepG2 2.2.15, read-out: EC90 (Effective Concentration)): 15 µg/mL (≈ 61.9 µM) |

Reference: patent US6034087A, “Nucleoside derivatives and process for preparing thereof” (priority 1994, dated 2000)
